Data reported in patent US20110207775A1, “AGENT THAT MODULATES PHYSIOLOGICAL CONDITION OF PESTS, INVOLVED IN INSECT VESICLE-FUSING ATPASE ACTIVITY” (SUMITOMO CHEMICAL COMPANY, LIMITED, priority 2006, published 2011).

Key:
[1] = molecular target: cotton aphid vesicle-fusing ATPase (Aphis gossypii, UniProt A0A9P0IYS6); assay: Inhibition of cotton aphid vesicle-fusing ATPase activity (Kinase-Glo luminescent assay of ATP not hydrolyzed); format: biochemical; conditions: for IC50: 8 concentrations from 100 μM to 0.03 μM, calculated with XLfit, read-out: Activity of inhibiting vesicle-fusing ATPase activity (IC50)
Sequence of cotton aphid vesicle-fusing ATPase (A0A9P0IYS6 1-478): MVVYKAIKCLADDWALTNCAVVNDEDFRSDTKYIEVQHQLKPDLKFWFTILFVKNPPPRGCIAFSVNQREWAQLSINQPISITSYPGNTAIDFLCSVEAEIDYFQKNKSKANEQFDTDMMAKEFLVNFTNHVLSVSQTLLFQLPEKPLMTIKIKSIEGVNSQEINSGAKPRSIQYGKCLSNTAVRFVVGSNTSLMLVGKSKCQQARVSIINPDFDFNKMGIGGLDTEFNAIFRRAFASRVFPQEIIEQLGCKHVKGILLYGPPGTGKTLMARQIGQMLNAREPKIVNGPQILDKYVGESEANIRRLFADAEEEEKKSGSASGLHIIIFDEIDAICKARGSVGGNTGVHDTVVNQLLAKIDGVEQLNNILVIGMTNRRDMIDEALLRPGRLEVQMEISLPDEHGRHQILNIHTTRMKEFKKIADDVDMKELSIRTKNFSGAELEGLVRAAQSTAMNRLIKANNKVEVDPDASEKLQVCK
Experimental: Selection of a compound which modulates a vesicle-fusing ATPase activity was performed in a system for measuring and evaluating the vesicle-fusing ATPase activity, the activity being modulated by adding a test compound to an in vitro reaction system using the cotton aphid vesicle-fusing ATPase prepared in Example 7.
As for a measurement of the cotton aphid vesicle-fusing ATPase activity, after the enzymatic reaction of vesicle-fusing ATPase using ATP as a substrate, an amount of ATP that was not hydrolyzed was measured as the amount of luminescence of luciferase using Kinase-Glo™ Luminescent Kinase Assay (manufactured by Promega), according to a method described in the instruction attached to the kit. The vesicle-fusing ATPase activity was calculated from the amount of luminescence.
For measuring the activity, the activity of the aphid vesicle-fusing ATPase was measured when a test compound dissolved in DMSO was contained to a final concentration of 10 μM. In addition, the activity of the aphid vesicle-fusing ATPase was measured when DMSO was contained in place of a test compound. Then, a ratio (%) of a measured value of the activity of the aphid vesicle-fusing ATPase when a test compound dissolved in DMSO was contained, relative to a measured value of the activity of aphid vesicle-fusing ATPase when DMSO was contained in place of the test compound was calculated, and a value obtained by subtracting the calculated value from 100% was adopted as an inhibition degree (%). The results in each test compound are shown in Table 4 in Example 9 together with results of Example 9.
The activity of aphid vesicle-fusing ATPase was measured when a test compound dissolved in DMSO was contained to a final concentration of each concentration of 100 μM, 30 μM, 10 μM, 3 μM, 1 μM, 0.3 μM, 0.1 μM or 0.03 μM. IC50 (μM) was calculated from the result of each concentration at each test compound using a concentration-dependent test analyzing software XL fit (manufactured by idbs). The results are shown in Table 5 in Example 10 together with results of Example 9.

Aphis gossypii = assay: Pesticidal activity test, cotton aphid reared on artificial feed containing test compound; format: in vivo; conditions: same manner as Example 9: 50 ppm in artificial feed, 6 days, controlling value of 30% or more = pesticidal activity
vesicle-fusing ATPase = conditions: ATPase inhibitor; Steel et al. 1999, Morgan et al. 1994; cited from earlier work
[2] = test compound in DMSO at final concentration 10 μM, relative to DMSO control

Compound	IC50 [1] [µM]	Determination result of pesticidal activity (Result of Example 10) (Aphis gossypii)	Activity of inhibiting vesicle-fusing ATPase activity (inhibition degree (%) at 10 μm addition) [1, 2] [%]	inhibition at 10 µM ([1]; test compound in DMSO at final concentration 10 μM, relative to DMSO control, read-out: Activity of inhibiting vesicle-fusing ATPase activity (inhibition degree (%) at 10 μm addition)) [%]	Activity against vesicle-fusing ATPase (vesicle-fusing ATPase)
Hypocrellin B	> 100	Absence of	–	–	–
CCCCCCCCCCCCC(=O)N1CCCCC1CNC(=O)[C@@H](N)CCCCN.Cl.Cl (some centres unmarked) [NPC15437 dihydrochloride]	19	–	35	–	–
Cc1ccc2c(c1)C(=O)C1(O)CCN(c3ccccc3)C1=N2 (racemic) [(±)-Blebbistatin]	> 100	Absence of	–	–	–
Cc1ccc(C(=O)Nc2ccc(S(=O)(=O)O)c3cc(S(=O)(=O)O)cc(S(=O)(=O)O)c23)cc1NC(=O)c1cccc(NC(=O)Nc2cccc(C(=O)Nc3cc(C(=O)Nc4ccc(S(=O)(=O)O)c5cc(S(=O)(=O)O)cc(S(=O)(=O)O)c45)ccc3C)c2)c1 [Suramin]	1.9	–	–	100	–
CCN1C(=O)C=CC1=O [N-ethylmaleimide]	–	–	–	–	show also activity against vesicle-fusing ATPase
Clc1ccc(C(c2ccc(Cl)cc2)n2cc[n+](CC(OCc3ccc(Cl)cc3Cl)c3ccc(Cl)cc3Cl)c2)cc1 (centres unmarked) [Calmidazolium Chloride]	4.7	–	80	–	–
